According to PMC6332220, “Synthesis, Characterization and Biological Evaluation of Some Quinoxaline Derivatives: A Promising and Potent New Class of Antitumor and Antimicrobial Agents” (Molecules, 2015):
≈ marks a conversion by molar mass, not a printed value.

How the values were obtained:
Type in all cases: cell-based
Bacillus subtilis = experiment: MIC by broth dilution, Bacillus subtilis; settings: Bacillus subtilis, Gram positive, 0.98-125 µg/mL, read-out: Minimum Inhibitory Concentration (MIC) (µg/mL) Bacillus subtilis
Description: (§1) In this study, MIC (quantitative method) was used for evaluation of the antimicrobial activity of tested compounds. Screening was evaluated in vitro using the Broth dilution method according to CLSI [45]. All the bacteria were incubated and activated at 30 °C for 24 h inoculation into nutrient broth and the fungi were incubated in malt extract broth for 48 h. The compounds were dissolved in DMSO and then diluted using […] Mueller-Hinton broth. […] In each case triplicate tests were performed and the average was taken as the final reading. The tubes were then inoculated with the test organisms, grown in their suitable broth at 37 °C for 24 h for tested microorganisms (1 × 10^8 CFU/mL for bacteria and 1 × 10^6 CFU/mL of fungi), each 5 mL received 0.1 mL of the above inoculum and incubated at 37 °C for 24 h.

[1] = test system: Gram positive and negative bacteria; experiment: Disk diffusion, summary over bacterial strains; settings: range over bacterial strains as summarised in text
Description: (§2) The disk diffusion method was used for determination of the antimicrobial activity using ampicillin, gentamicin and amphotericin B as reference drugs. The results were recorded for each compounds as the average diameter as inhibition zones (IZ) of bacterial or fungal growth around the discs in mm as shown in Table 2.
Antimicrobial activities were carried out against highly pathogenic strains; three strains of Gram positive bacteria (Bacillus subtilis, Staphylococcus aureus and Streptococcus faecalis), four strains of Gram negative bacteria (Escherichia coli, Neisseria gonorrhoeae, Pseudomonas aeruginosa and Salmonella typhimurium) and three fungi strains (Aspergillus flavus, Aspergillus fumigatus and Candida albicans) isolated from primary agar plates. Antimicrobial activity of the tested samples was determined using a modified Kriby-Bauer disk diffusion method. Briefly, 100 µL of the test bacteria/fungi were grown in 10 mL of fresh media until they reached a count approximately 10^8 cells/mL for bacteria or 10^5 cells/mL for fungi. 100 µL of microbial suspension was spread onto agar plates corresponding to the broth in which they were maintained. […]

Aspergillus flavus = experiment: Disk diffusion, Aspergillus flavus; settings: Fungi, 8.0 mm disks, 10 μL
Description: as §2
(§3) Antimicrobial activities were carried out against highly pathogenic strains; three strains of Gram positive bacteria (Bacillus subtilis, Staphylococcus aureus and Streptococcus faecalis), four strains of Gram negative bacteria (Escherichia coli, Neisseria gonorrhoeae, Pseudomonas aeruginosa and Salmonella typhimurium) and three fungi strains (Aspergillus flavus, Aspergillus fumigatus and Candida albicans) isolated from primary agar plates. Antimicrobial activity of the tested samples was determined using a modified Kriby-Bauer disk diffusion method. Briefly, 100 µL of the test bacteria/fungi were grown in 10 mL of fresh media until they reached a count approximately 10^8 cells/mL for bacteria or 10^5 cells/mL for fungi. 100 µL of microbial suspension was spread onto agar plates corresponding to the broth in which they were maintained. The inoculated plates of bacterial strains were incubated at 35–37 °C for 24–48 h, while the inoculated plates of fungal strains such as A. flavus and A. fumigatus were incubated at 25 °C for 48 h and yeast as C. albicans was incubated at 30 °C for 24–48 h.
(§4) The agar disk diffusion (qualitative) method was used in this investigation for determination of the preliminary antibacterial and antifungal activities. The agar used was Mueller-Hinton agar plates that are rigorously tested for composition and pH. Further the depth of the agar in the plate is a factor to be considered in the disk diffusion method.
(§5) Reference drugs: ampicillin was used as a standard antibacterial drug for Gram positive bacteria, gentamicin as a standard antibacterial drug for Gram negative bacteria and amphotericin B as antifungal standard drug.
(§6) Bacterial and fungal strains were spread onto the surface of the agar plates using sterile cotton swabs. For evaluation of antibacterial activities, blank paper disks (Schleicher & Schuell, Alicante, Spain) with a diameter of 8.0 mm were saturated with 10 μL of tested concentration of the stock solutions. Disks were dried and then placed onto inoculated agar plates. The plates of bacterial strains were reincubated at 35–37 °C for 24–48 h, while the plates of fungal strains such as A. flavus and A. fumigatus were reincubated at 25 °C for 48 h and yeast as C. albicans was reincubated at 30 °C for 24–48 h as mentioned above. […] For an accurate analysis, tests were run in triplicate for each strain to avoid any error as described in Table 2.
(§7) Disk diffusion method for filamentous fungi testing by using approved standard method (M02-A11) developed by the CLSI for evaluating the susceptibilities of filamentous fungi to antifungal agents. Disk diffusion method for yeasts developed by using approved standard method (M44-A2) by the CLSI [44]. Agar-based methods such as disk diffusion can be good alternatives because they are simpler and faster than broth-based methods.

Escherichia coli = experiment: Disk diffusion, Escherichia coli; settings: Gram negative, 8.0 mm disks, 10 μL
Description: as §2, §3, §4, §5, §6

[2] = test system: Gram positive and negative bacteria; experiment: MIC by broth dilution, summary over bacterial strains; settings: range over bacterial strains as summarised in text
Description: as §2, §1

Streptococcus faecalis = experiment: Disk diffusion, Streptococcus faecalis; settings: Gram positive, 8.0 mm disks, 10 μL
Description: as §2, §3, §4, §5, §6

Aspergillus fumigatus [3] = experiment: Disk diffusion, Aspergillus fumigatus; settings: Fungi, 8.0 mm disks, 10 μL
Description: as §2, §3, §4, §5, §6, §7

Candida albicans = experiment: MIC by broth dilution, Candida albicans; settings: Fungi, 0.98-125 µg/mL, read-out: Minimum Inhibitory Concentration (MIC) (µg/mL) Candida albicans
Description: as §2, §1

[4] = test system: A. fumigatus and C. albicans; experiment: Disk diffusion, summary over A. fumigatus and C. albicans; settings: range over both fungi
Description: as §2, §3, §4, §5
Bacterial and fungal strains were spread onto the surface of the agar plates using sterile cotton swabs. […]

[5] = test system: A. fumigatus and C. albicans; experiment: MIC by broth dilution, summary over A. fumigatus and C. albicans; settings: range over both fungi
Description: as §2, §1

Aspergillus fumigatus [6] = experiment: MIC by broth dilution, Aspergillus fumigatus; settings: Fungi, 0.98-125 µg/mL, read-out: Minimum Inhibitory Concentration (MIC) (µg/mL) Aspergillus fumigatus
Description: as §2, §1

SMILES: NNc1nc2cc(Br)ccc2nc1Cl [Compound 3, 6-Bromo-2-chloro-3-hydrazinylquinoxaline]
- MIC (Bacillus subtilis): 1.95 µg/mL (≈ 7.13 µM)
- IZ range against Gram positive and negative bacteria [1]: 13–15 mm
- Inhibition Zone Diameter (IZ) (mm) Aspergillus flavus (Aspergillus flavus): R (R (IZ = 0 mm))
- Inhibition Zone Diameter (IZ) (mm) Escherichia coli (Escherichia coli): 13 mm
- MIC range against Gram positive and negative bacteria [2]: 0.98 to 125 µg/mL
- Inhibition Zone Diameter (IZ) (mm) Streptococcus faecalis (Streptococcus faecalis): 14 mm
- Inhibition Zone Diameter (IZ) (mm) Aspergillus fumigatus (Aspergillus fumigatus [3]): R (R (IZ = 0 mm))

SMILES: Clc1nc2ccc(Br)cc2n2nnnc12 [Compound 4, 8-Bromo-4-chlorotetrazolo[1,5-a]quinoxaline]
- MIC (Bacillus subtilis): 0.98 µg/mL (≈ 3.44 µM)
- MIC (Candida albicans): 3.9 µg/mL (≈ 13.7 µM)
- Inhibition Zone Diameter (IZ) (mm) Aspergillus flavus (Aspergillus flavus): 13 mm
- Inhibition Zone Diameter (IZ) (mm) Escherichia coli (Escherichia coli): 17 mm
- Inhibition Zone Diameter (IZ) (mm) Streptococcus faecalis (Streptococcus faecalis): 18 mm
- Inhibition Zone Diameter (IZ) (mm) Aspergillus fumigatus (Aspergillus fumigatus [3]): 10 mm

SMILES: Brc1ccc2nc(N3CCCCC3)c3nnnn3c2c1 [Compound 5a, 8-Bromo-4-(piperidin-1-yl)tetrazolo[1,5-a]quinoxaline]
- MIC (Bacillus subtilis): 31.2 µg/mL (≈ 93.8 µM)
- MIC (Candida albicans): 62.5 µg/mL (≈ 188 µM)
- Inhibition Zone Diameter (IZ) (mm) Aspergillus flavus (Aspergillus flavus): R (R (IZ = 0 mm))
- Inhibition Zone Diameter (IZ) (mm) Escherichia coli (Escherichia coli): 13 mm
- IZ range against A. fumigatus and C. albicans [4]: 5–13 mm
- MIC range against A. fumigatus and C. albicans [5]: 0.98 to 62.5 µg/mL
- MIC (Aspergillus fumigatus [6]): 31.2 µg/mL (≈ 93.8 µM)
- Inhibition Zone Diameter (IZ) (mm) Streptococcus faecalis (Streptococcus faecalis): 9 mm
- Inhibition Zone Diameter (IZ) (mm) Aspergillus fumigatus (Aspergillus fumigatus [3]): 12 mm

SMILES: Brc1ccc2nc(N3CCOCC3)c3nnnn3c2c1 [Compound 5b, 8-Bromo-4-(morpholin-4-yl)tetrazolo[1,5-a]quinoxaline]
- MIC (Bacillus subtilis): 1.95 µg/mL (≈ 5.82 µM)
- MIC (Candida albicans): 3.9 µg/mL (≈ 11.6 µM)
- Inhibition Zone Diameter (IZ) (mm) Aspergillus flavus (Aspergillus flavus): R (R (IZ = 0 mm))
- Inhibition Zone Diameter (IZ) (mm) Escherichia coli (Escherichia coli): 11 mm
- IZ range against A. fumigatus and C. albicans [4]: 5–13 mm
- MIC range against A. fumigatus and C. albicans [5]: 0.98 to 62.5 µg/mL
- MIC (Aspergillus fumigatus [6]): 1.95 µg/mL (≈ 5.82 µM)
- Inhibition Zone Diameter (IZ) (mm) Streptococcus faecalis (Streptococcus faecalis): 11 mm
- Inhibition Zone Diameter (IZ) (mm) Aspergillus fumigatus (Aspergillus fumigatus [3]): 12 mm

SMILES: NNc1nc2ccc(Br)cc2nc1NN [Compound 9, 6-Bromo-2,3-dihydrazinylquinoxaline]
- MIC (Bacillus subtilis): 0.98 µg/mL (≈ 3.64 µM)
- MIC (Candida albicans): 0.98 µg/mL (≈ 3.64 µM)
- Inhibition Zone Diameter (IZ) (mm) Aspergillus flavus (Aspergillus flavus): R (R (IZ = 0 mm))
- Inhibition Zone Diameter (IZ) (mm) Escherichia coli (Escherichia coli): 29 mm
- IZ range against A. fumigatus and C. albicans [4]: 5–13 mm
- MIC range against A. fumigatus and C. albicans [5]: 0.98 to 62.5 µg/mL
- MIC (Aspergillus fumigatus [6]): 0.98 µg/mL (≈ 3.64 µM)
- Inhibition Zone Diameter (IZ) (mm) Streptococcus faecalis (Streptococcus faecalis): 27 mm
- Inhibition Zone Diameter (IZ) (mm) Aspergillus fumigatus (Aspergillus fumigatus [3]): 5 mm

SMILES: Brc1ccc2c(c1)n1nnnc1c1nnnn21 [Compound 11, 9-Bromoditetrazolo[1,5-a:5′,1′-c]quinoxaline]
- MIC (Bacillus subtilis): 0.98 µg/mL (≈ 3.37 µM)
- Inhibition Zone Diameter (IZ) (mm) Aspergillus flavus (Aspergillus flavus): R (R (IZ = 0 mm))
- Inhibition Zone Diameter (IZ) (mm) Escherichia coli (Escherichia coli): 15 mm
- Inhibition Zone Diameter (IZ) (mm) Streptococcus faecalis (Streptococcus faecalis): 15 mm
- Inhibition Zone Diameter (IZ) (mm) Aspergillus fumigatus (Aspergillus fumigatus [3]): R (R (IZ = 0 mm))

SMILES: Cc1cc(C)n(-c2nc3cc(Br)ccc3nc2NN)n1 [Compound 14, 6-Bromo-3-(3,5-dimethyl-1H-pyrazol-1-yl)-2-hydrazinyl quinoxaline]
- MIC (Bacillus subtilis): 1.95 µg/mL (≈ 5.85 µM)
- Inhibition Zone Diameter (IZ) (mm) Aspergillus flavus (Aspergillus flavus): R (R (IZ = 0 mm))
- Inhibition Zone Diameter (IZ) (mm) Escherichia coli (Escherichia coli): 12 mm
- Inhibition Zone Diameter (IZ) (mm) Streptococcus faecalis (Streptococcus faecalis): 12 mm
- Inhibition Zone Diameter (IZ) (mm) Aspergillus fumigatus (Aspergillus fumigatus [3]): R (R (IZ = 0 mm))

SMILES: NC1=NN(c2nc3ccc(Br)cc3nc2N2N=C(N)CC2=O)C(=O)C1 [Compound 16, 6-Bromo-2,3-bis(3-amino-1H-pyrazol-5(4H)-one)quinoxaline]
- MIC (Bacillus subtilis): 1.95 µg/mL (≈ 4.84 µM)
- Inhibition Zone Diameter (IZ) (mm) Aspergillus flavus (Aspergillus flavus): R (R (IZ = 0 mm))
- Inhibition Zone Diameter (IZ) (mm) Escherichia coli (Escherichia coli): 10 mm
- Inhibition Zone Diameter (IZ) (mm) Streptococcus faecalis (Streptococcus faecalis): 11 mm
- Inhibition Zone Diameter (IZ) (mm) Aspergillus fumigatus (Aspergillus fumigatus [3]): R (R (IZ = 0 mm))
